Measurements: publication PMC5583658, “6,7-dimethoxy-1,2,3,4-tetrahydro-isoquinoline-3-carboxylic acid attenuates heptatocellular carcinoma in rats with NMR-based metabolic perturbations” (Future Science OA, 2017)

Experiments:
[1] = system: diethylnitrosamine-induced hepatocarcinogenic rats; assay: ALT and AST in plasma of DEN-induced HCC rats; type: in vivo, albino Wistar rats; details: 15 days, mean ± SD, n = 6
Description: (§1) All animals were randomly divided into five groups of six animals each. Drugs were suspended in 0.25% CMC, subjected to 28 days’ treatment orally and divided as follows: Group I: 0.25% CMC (2 ml/kg), Group II: DEN (8 mg/kg, intraperitoneally), Group III: DEN+5-fluorouracil (5-FU, 10 mg/kg, intraperitoneally), Group IV: DEN+M1 (50 mg/kg, orally) and Group V: DEN+M1 (100 mg/kg, orally). The procedure to induce HCC was adopted from a paper by Song et al. where it is shown that DEN produces HCC at 8 mg/kg intraperitoneal injection for 28 days to albino Wistar rats. After initial 1 week of adaptive inhabitation, all rats of group II–V were administered with DEN (8 mg/kg, intraperitoneally) for 28 days. After 28 days, 5-FU and M1 were given for 15 days as mentioned above for group III–V. At the end of the experimental period, animals were sacrificed by cervical decapitation and livers were dissected out immediately, rinsed in ice cold saline and stored at -20°C for further studies. The serum was collected, processed and stored for further analysis.
(§2) Liver function biomarkers like aspartate aminotransferase (AST), alanine aminotransferase (ALT) were also measured in serum using commercially available kit from Ebra Diagonesis Pvt Ltd, Germany. The oxidative parameters like superoxide dismutase (SOD), thiobarbituric acid reactive substances (TBARS), protein carbonyl (PC), SOD [14], tissue catalase (CAT) and glutathione (GSH) levels were estimated in liver tissue in the similar experiment. The total protein content of each sample was measured using the Bradford reagent and bovine serum albumin was used as a standard. Conjugated bilirubin and biliverdin in liver were measured as per the following procedure stated earlier in the literature with slight modifications.

[2] = system: diethylnitrosamine-induced hepatocarcinogenic rats; assay: Oxidative stress parameters (SOD, CAT, GSH, PC, MDA) in liver of DEN-induced HCC rats; type: in vivo, albino Wistar rats; details: for CAT / MDA / PC / Reduced GSH / SOD: 15 days, mean ± SD, n = 6
Description: as §1, §2

[3] = system: diethylnitrosamine-induced hepatocarcinogenic rats; assay: Bilirubin and biliverdin in liver of DEN-induced HCC rats; type: in vivo, albino Wistar rats; details: for Bilirubin / Biliverdin: 15 days, mean ± SD, n = 6
Description: as §1, §2

[4] = system: diethylnitrosamine-induced hepatocarcinogenic rats; assay: 1H-NMR-based serum metabolic profiling; type: in vivo, albino Wistar rats; details: rat serum
Description: as §1
All serum samples were thawed at room temperature, 250 μl of serum was taken and mixed with 250 μl of 0.9% saline sodium-phosphate buffer of strength 50 mM, pH 7.4 prepared in D2O. Then, the samples were centrifuged at 10,000 rpm for 5 min to remove any precipitates before acquiring the NMR data. A total 400 μl of the supernatant sample was used in 5 mm NMR tubes (Wilmad Glass, USA) for data acquisition with a co-axial insert containing the known concentration of TSP (sodium salt of 3-trimethylsilyl-(2,2,3,3-d4)-propionic acid) i.e. 0.1% was used as external standard reference to aid metabolite quantification for NMR experiment. Deuterium oxide (D2O; as a co-solvent and to provide a deuterium field/frequency lock) and sodium salt of trimethylsilylpropionic acid-d4 (TSP) used for NMR experiments, were purchased from Sigma-Aldrich (RI, USA).
All NMR spectra were recorded at 298 K on Bruker Biospin Avance-III 800 MHz NMR spectrometer operating at proton frequency of 800.21 MHz, equipped with CryoProbe and an actively shielded gradient unit with a maximum gradient-strength output of […]. The raw NMR data were processed in Topspin-2.1 (Bruker NMR data Processing Software). For each serum sample, one-dimensional ^1H-NMR and diffusion edited ^1H NMR spectra were recorded using the Carr–Purcell–Meiboom–Gill (CPMG) pulse sequence (cpmgpr1d, standard Bruker pulse program) with pre-saturation of the water peak through irradiating it continuously during the recycle delay (RD) of 5 sec, and the bipolar pulse pair longitudinal eddy current delay (BPP-LED) sequence, respectively. Each CPMG spectrum consisted of the accumulation of 128 scans and lasted for approximately 15 minutes. To remove broad signals from triglycerides, proteins, cholesterols and phospholipids, a total spin–spin relaxation time of 60 ms (n = 300 and 2τ=[…]) with a line broadening factor of 0.3 Hz was applied. For diffusion edited (DE)^1H NMR pulse sequence, the square gradients of 70% of the maximum gradient strength (56 G/cm) and 2 ms duration (followed by a delay of 200 μs to allow for the decay of eddy currents) were used. Diffusion time of 120 ms was used to attenuate the signals from low molecular weight compounds without affecting the lipid signals. All the spectra were processed using Topspin-2.1 (Bruker NMR data Processing Software) using standard Fourier Transformation (FT) procedure following manual phase and baseline-correction. Prior to FT, each FID was zero-filled to 4096 data points and a sine-bell apodisation function was applied. After FT, the chemical shifts were referenced internally to methyl peak of L-lactate (at δ=1.33 ppm). All recorded spectra were visually inspected for acceptability and subjected to multivariate statistical analysis to identify the altered metabolic pattern. […]

[5] = system: Huh-7 cells; details: in vitro, MTT assay; M1 isolated from MP seeds; cited from earlier work

COc1cc2c(cc1OC)CC(C(=O)O)NC2 (centres unmarked) [M1, 6,7-dimethoxy-1,2,3,4-tetrahydro-isoquinoline-3-carboxylic acid]
ALT ([1]; DEN+M1 50 mg/kg orally): 88.4 ± 3.18 U/L
AST ([1]; DEN+M1 50 mg/kg orally): 47.73 ± 1.76 U/L
ALT ([1]; DEN+M1 100 mg/kg orally): 58.04 ± 2.84 U/L
AST ([1]; DEN+M1 100 mg/kg orally): 40.95 ± 1.35 U/L
CAT ([2]; DEN+M1 50 mg/kg orally): 6.51 ± 0.29 nM of H2O2/min/μg of protein
MDA ([2]; DEN+M1 50 mg/kg orally): 51.60 ± 1.009 nM/μg of protein
PC ([2]; DEN+M1 50 mg/kg orally): 0.46 ± 0.08 μM/μg of protein
Reduced GSH ([2]; DEN+M1 50 mg/kg orally): 5.40 ± 0.42 μM/μg of protein
SOD ([2]; DEN+M1 50 mg/kg orally): 5.92 ± 0.72 U/μg of protein
CAT ([2]; DEN+M1 100 mg/kg orally): 7.52 ± 0.7 nM of H2O2/min/μg of protein
MDA ([2]; DEN+M1 100 mg/kg orally): 45.20 ± 1.05 nM/μg of protein
PC ([2]; DEN+M1 100 mg/kg orally): 0.40 ± 0.02 μM/μg of protein
Reduced GSH ([2]; DEN+M1 100 mg/kg orally): 6.69 ± 0.30 μM/μg of protein
SOD ([2]; DEN+M1 100 mg/kg orally): 6.14 ± 0.17 U/μg of protein
GSH level ([2]; M1 50 mg/kg): ~5.40 µM
GSH level ([2]; M1 100 mg/kg): ~6.69 µM
SOD level as compared with normal group ([2]; M1-treated groups (toxic control 20–30%)): 70–80%
PC formation ([2]; M1-treated rats, text value (toxic control ∼0.96 μM)): ~0.40 µM
MDA formation ([2]; after M1 therapy, text value (toxic control approximately 98 nM)): ~50 nM
Bilirubin ([3]; DEN+M1 50 mg/kg orally): 50.59 ± 1.39 ng/μg of protein
Biliverdin ([3]; DEN+M1 50 mg/kg orally): 21.19 ± 2.42 ng/μg of protein
Bilirubin ([3]; DEN+M1 100 mg/kg orally): 40.64 ± 3.47 ng/μg of protein
Biliverdin ([3]; DEN+M1 100 mg/kg orally): 16.95 ± 1.96 ng/μg of protein
biliverdin concentration ([3]; M1-treated rats, text value (toxic control ∼28 ng)): ~16 ng
Variation with respect to DEN: Acac (chemical shift 2.28) ([4]; DEN+M1 50 mg/kg orally): ↑
Variation with respect to DEN: Ace (chemical shift 1.92) ([4]; DEN+M1 50 mg/kg orally): ↓
Variation with respect to DEN: Acet (chemical shift 2.23) ([4]; DEN+M1 50 mg/kg orally): ↑
Variation with respect to DEN: Ala (chemical shift 1.48) ([4]; DEN+M1 50 mg/kg orally): ↓
Variation with respect to DEN: Betaine (chemical shift 3.265) ([4]; DEN+M1 50 mg/kg orally): ↓
Variation with respect to DEN: Chol (chemical shift 3.22) ([4]; DEN+M1 50 mg/kg orally): ↓
Variation with respect to DEN: Cit (chemical shift 2.52) ([4]; DEN+M1 50 mg/kg orally): ↑
Variation with respect to DEN: Cr (chemical shift 3.03) ([4]; DEN+M1 50 mg/kg orally): ↑
Variation with respect to DEN: L1 (LDL) (chemical shift 0.83–0.87) ([4]; DEN+M1 50 mg/kg orally): ↓
Variation with respect to DEN: L2 (VLDL) (chemical shift 0.87–0.90) ([4]; DEN+M1 50 mg/kg orally): ↑
Variation with respect to DEN: L3 (LDL) (chemical shift 1.23–1.27) ([4]; DEN+M1 50 mg/kg orally): ↓
Variation with respect to DEN: L4 (VLDL) (chemical shift 1.27–1.30) ([4]; DEN+M1 50 mg/kg orally): ↑
Variation with respect to DEN: L6 (chemical shift 2.00) ([4]; DEN+M1 50 mg/kg orally): ↓
Variation with respect to DEN: L9 (chemical shift 5.28) ([4]; DEN+M1 50 mg/kg orally): ↓
Variation with respect to DEN: Leu (chemical shift 0.96) ([4]; DEN+M1 50 mg/kg orally): ↑
Variation with respect to DEN: Lys (chemical shift 1.89) ([4]; DEN+M1 50 mg/kg orally): ↓
Variation with respect to DEN: NAG (chemical shift 2.02) ([4]; DEN+M1 50 mg/kg orally): ↑
Variation with respect to DEN: OAG (chemical shift 2.13) ([4]; DEN+M1 50 mg/kg orally): ↑
Variation with respect to DEN: Pyr (chemical shift 2.37) ([4]; DEN+M1 50 mg/kg orally): ↓
Variation with respect to DEN: Tyr (chemical shift 6.89) ([4]; DEN+M1 50 mg/kg orally): ↓
Variation with respect to DEN: Acac (chemical shift 2.28) ([4]; DEN+M1 100 mg/kg orally): ↑
Variation with respect to DEN: Ace (chemical shift 1.92) ([4]; DEN+M1 100 mg/kg orally): ↓
Variation with respect to DEN: Acet (chemical shift 2.23) ([4]; DEN+M1 100 mg/kg orally): ↑
Variation with respect to DEN: Ala (chemical shift 1.48) ([4]; DEN+M1 100 mg/kg orally): ↓
Variation with respect to DEN: Betaine (chemical shift 3.265) ([4]; DEN+M1 100 mg/kg orally): ↓
Variation with respect to DEN: Chol (chemical shift 3.22) ([4]; DEN+M1 100 mg/kg orally): ↓
Variation with respect to DEN: Cit (chemical shift 2.52) ([4]; DEN+M1 100 mg/kg orally): ↑
Variation with respect to DEN: Cr (chemical shift 3.03) ([4]; DEN+M1 100 mg/kg orally): ↓
Variation with respect to DEN: ILeu (chemical shift 1.00) ([4]; DEN+M1 100 mg/kg orally): ↑
Variation with respect to DEN: L1 (LDL) (chemical shift 0.83–0.87) ([4]; DEN+M1 100 mg/kg orally): ↓
Variation with respect to DEN: L2 (VLDL) (chemical shift 0.87–0.90) ([4]; DEN+M1 100 mg/kg orally): ↑
Variation with respect to DEN: L4 (VLDL) (chemical shift 1.27–1.30) ([4]; DEN+M1 100 mg/kg orally): ↑
Variation with respect to DEN: Leu (chemical shift 0.96) ([4]; DEN+M1 100 mg/kg orally): ↑
Variation with respect to DEN: Lys (chemical shift 1.89) ([4]; DEN+M1 100 mg/kg orally): ↓
Variation with respect to DEN: NAG (chemical shift 2.02) ([4]; DEN+M1 100 mg/kg orally): ↑
Variation with respect to DEN: Pyr (chemical shift 2.37) ([4]; DEN+M1 100 mg/kg orally): ↓
Variation with respect to DEN: Tyr (chemical shift 6.89) ([4]; DEN+M1 100 mg/kg orally): ↓
antiproliferative action on Huh-7 cells [5]: good antiproliferative action
